Experimental data published in patent US9675569B2, “Method for treating a pulmonary disease state in mammals by up regulating indigenous in vivo levels of inflammatory agents in mammalian cells” (priority 2012, dated 2017).

Key:
HSV-I infected cell = experiment: Viral plaque reduction in HSV-I infected cells; assay type: cell-based; details: for viral plaque formation decreased: virally infected cells (Example 1)
Description: The primary end points were the levels of IL-8 and IL-1 after treatment with an immunostimulator, pyruvate and the combination of pyruvate and α-ketoisovalerate. […] IL-8 activates neutrophils to increase their numbers at the infected site. […] IL-1 increases inflammation and decreases healing times. […] Viral plaques are a direct measure of viral numbers in infected cells.

viral infections = experiment: Inhaled sodium pyruvate in a patient with sinusitis, viral infections; assay type: in vivo, human; details: inhalation of 5.0 mls of a 20 mM solution, used by itself; one patient
Experimental: (§1) This medication is an anti-viral drug used to treat infants and young children who have a severe lung infection caused by a certain virus (respiratory syncytial virus-RSV). Nearly all children become infected with this virus before they are 3 years old. […] This medication is used to treat severe RSV infections that need treatment in a hospital. This medication is given by continuous inhalation, usually for 12 to 18 hours daily for 3 to 7 days or as directed by the doctor. A special machine (small-particle aerosol generator) is used to make a mist, which is then inhaled through the mouth or nose. Chest soreness may occur. Redness/irritation of the nasal cavities and eye or eyelid may also occur. When five (5) mls. of a 10 mM solution of pyruvate was used prior to the administration of this medication; the patient reported that the irritation and chest soreness was eliminated. […] Tissue culture studies with HSV-1, HSV-2 and various rhinoviruses, have shown that 10-40 mM concentrations of pyruvate reduced viral plaques by 40-60% by increasing the synthesis of various cytokines. The combination of various antivirals with pyruvate totally eliminated the virus infection in cells. The inhalation of 5.0 mls of a 20 mM solution of sodium pyruvate used by itself reduced viral infections in a patient with sinusitis by 50%.

[1] = One week open label home-use trial of sodium pyruvate+saline nasal sprays (Example 5); assay type: in vivo, human
Description: Thirty-nine (39) subjects who were regular nasal spray users due to chronic sinusitis or allergic rhinitis and other sinus diseases were recruited for a one week open label, in home-use trial. Allergic rhinitis and other sinus diseases result in the elevation of certain inflammatory components and the concurrent down regulation of some other inflammatory components. When this happens, infections can occur. The ability to up-regulate these immune components helps balance the nasal immune system to inhibit infections and minimize injury to surrounding tissues. Six (6) different sodium pyruvate+saline combination nasal sprays, based on concentrations of saline and sodium pyruvate, were administered to the subjects, and each of the test products were used by at least six subjects. The subjects used the test nasal sprays at home (two to three sprays; two or three times a day) for seven days, in place of their regular nasal spray.
Prior to, and at the end of the study period, the subjects' nostrils were examined for mucosal fragility, lesions, erythema, and edema using a rhinoscope.
Thirty-eight subjects completed the study. […] The test formula ranged from 0.5 mM solutions to 20 mM solutions. […] In this case we delivered the 20 mM solution nasal solution with sodium pyruvate. […]

[2] = tested on: HSV-1, HSV-2 and various rhinoviruses; experiment: Tissue culture studies, viral plaques; assay type: cell-based; details: 10-40 mM concentrations
Experimental: as §1

[3] = tested on: total protein, elastase, IL-6, IL-8, TNF-α; experiment: Inhaled sodium pyruvate in cystic fibrosis safety study: sputum inflammatory biomarkers; assay type: in vivo, human; details: for total proteins, elastase, IL-6, IL-8, and TNF-α: CF subjects
Experimental: All of the enrolled and dosed subjects were able to provide sputum samples for analysis before and after exposure to study drug (sodium pyruvate for inhalation at 0.5, 1.5, and 5.0 mM levels). The subjects were given 5 ml samples to inhale. Specimens were of good quality for the planned assays.
Samples were divided into two main aliquots after processing. The first aliquot was left untreated to be able to assay for the activity of free elastase. The second aliquot was treated with protease inhibitors pheylmethanesulfonylfluoride (PMSF) and ethylenediamine tetraacetic acid (EDTA) to stop any degradation of the cytokines of interest (IL-6, IL-8, IL-10, IL-17, and IL-23) and total protein.
For IL-10, IL-17 and IL-23, levels on sputum were at or below the limit of detection for the assays (7, 2 and 20 pg/mL respectively). For the other markers (total protein, elastase, IL-6, IL-8, TNF-α) levels detected where within those typically found in cystic fibrosis (CF) patients.

Row | SMILES | Percentage of viral plaque reduction in virally infected cells (HSV-I infected cell; Acyclovir alone, therapeutic dose) [%] | viral plaque formation decreased (HSV-I infected cell) [%] | viral infections reduced (viral infections) [%] | effectiveness rated by the patients compared to the 20-40 mM solutions ([1]; 0.5 mM to 5 mM solutions) | rating by the patients ([1]; 40 mM solution) | viral plaques reduced [2] | levels of TNF-α ([3]; inhalation at 0.5 mM) | levels of white blood cells, elastase, IL-8, IL-6 ([3]; inhalation at 0.5 mM) | total proteins, elastase, IL-6, IL-8, and TNF-α ([3]; inhalation of 5 ml of 0.5 mM) | total proteins, elastase, IL-6, IL-8, and TNF-α ([3]; inhalation of 5 ml of 5 mM or higher) | levels of white blood cells elastase, IL-8, IL-6, IL-10 and TNF-α ([3]; inhalation of more than 5 mM in humans)
1 | Nc1nc2c(ncn2COCCO)c(=O)[nH]1 [Acyclovir, 9-[(2-hydroxyethyloxy)methyl]guanine] | 40 | 60 | – | – | – | – | – | – | – | – | –
2 | CC(=O)C(=O)[O-].[Na+] [sodium pyruvate] | – | 50 | 50 | non-effective to less effective | favorably rated | 40-60% | did not increase | reduced | reduced | increased | increased
